Assay results taken from PubChem BioAssay AID328 (DTP/NCI, 2004).
Toxic doses and inconclusive results are not listed.

Tested on: BDF1 mice, P388 leukemia ip, median survival T/C
Experiment: NCI In Vivo Anticancer Drug Screen. Data for tumor model P388 Leukemia (intraperitoneal) in B6D2F1 (BDF1) mice
Details: endpoint: median survival time, higher = longer survival
Outline: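 Survival ratio, drug arm over vehicle arm, in mice with a transplanted tumour.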

[1] = dose: 25.0 mg/kg/injection, schedule: Q04DX003 (ip), vehicle: saline with Tween-80
[2] = dose: 50.0 mg/kg/injection, schedule: Q04DX003 (ip), vehicle: saline with Tween-80
[3] = dose: 100.0 mg/kg/injection, schedule: Q04DX003 (ip), vehicle: saline with Tween-80
[4] = dose: 50.0 mg/kg/injection, schedule: Q01DX009 (ip), vehicle: saline with Tween-80
[5] = dose: 200.0 mg/kg/injection, schedule: Q04DX003 (ip), vehicle: saline with Tween-80
[6] = dose: 400.0 mg/kg/injection, schedule: Q04DX003 (ip), vehicle: saline with Tween-80
[7] = dose: 100.0 mg/kg/injection, schedule: Q01DX001 (ip), vehicle: Klucel (hydroxypropylcellulose) (HPC)
[8] = dose: 100.0 mg/kg/injection, schedule: Q01DX009 (ip), vehicle: Klucel (hydroxypropylcellulose) (HPC)
[9] = dose: 100.0 mg/kg/injection, schedule: Q04DX003 (ip), vehicle: Klucel (hydroxypropylcellulose) (HPC)
[10] = dose: 200.0 mg/kg/injection, schedule: Q01DX001 (ip), vehicle: Klucel (hydroxypropylcellulose) (HPC)
[11] = dose: 200.0 mg/kg/injection, schedule: Q01DX009 (ip), vehicle: Klucel (hydroxypropylcellulose) (HPC)
[12] = dose: 200.0 mg/kg/injection, schedule: Q04DX003 (ip), vehicle: Klucel (hydroxypropylcellulose) (HPC)
[13] = dose: 400.0 mg/kg/injection, schedule: Q01DX001 (ip), vehicle: Klucel (hydroxypropylcellulose) (HPC)
[14] = dose: 400.0 mg/kg/injection, schedule: Q01DX009 (ip), vehicle: Klucel (hydroxypropylcellulose) (HPC)
[15] = dose: 400.0 mg/kg/injection, schedule: Q04DX003 (ip), vehicle: Klucel (hydroxypropylcellulose) (HPC)
[16] = dose: 100.0 mg/kg/injection, schedule: Q01DX009 (ip), vehicle: saline with Tween-80
[17] = dose: 200.0 mg/kg/injection, schedule: Q01DX009 (ip), vehicle: saline with Tween-80
[18] = dose: 400.0 mg/kg/injection, schedule: Q01DX009 (ip), vehicle: saline with Tween-80
[19] = dose: 100.0 mg/kg/injection, schedule: Q04DX002 (ip), vehicle: saline with Tween-80
[20] = dose: 200.0 mg/kg/injection, schedule: Q04DX002 (ip), vehicle: saline with Tween-80
[21] = dose: 25.0 mg/kg/injection, schedule: Q01DX009 (ip), vehicle: saline with Tween-80

`[O]=[Sb]([c]1ccccc1)([c]1ccccc1)[c]1ccccc1` was tested, and the T/C [1] was 106 % of control, the T/C [2] was 101 % of control and the T/C [3] was 114 % of control.

`[NH-][n+]1c2c(nc3ccccc31)-c1cccc3cccc-2c13` was tested, and the T/C (dose: 12.5 mg/kg/injection, schedule: Q01DX001 (ip), vehicle: Klucel (hydroxypropylcellulose) (HPC)) was 111 % of control, the T/C (dose: 25.0 mg/kg/injection, schedule: Q01DX001 (ip), vehicle: Klucel (hydroxypropylcellulose) (HPC)) was 100 % of control and the T/C (dose: 50.0 mg/kg/injection, schedule: Q01DX001 (ip), vehicle: Klucel (hydroxypropylcellulose) (HPC)) was 100 % of control.

In the case of `COc1cc2ccc3c(c2cc1OC)C=[N+](C)CC3`, the T/C [4] is reported as 108 % of control, the T/C (dose: 100.0 mg/kg/injection, schedule: Q04DX003 (ip), vehicle: saline) is reported as 118 % of control and the T/C (dose: 200.0 mg/kg/injection, schedule: Q04DX003 (ip), vehicle: saline) is reported as 118 % of control. The T/C (dose: 400.0 mg/kg/injection, schedule: Q04DX003 (ip), vehicle: saline) was 90 % of control.

For `CCCCC(=O)C1=C(O)C(Nc2ccccc2)=CC(=O)C1=Nc1ccccc1`, the T/C [3] was 98 % of control, the T/C [5] was 103 % of control and the T/C [6] was 100 % of control.

With `S=C(NNc1ccccc1)NC1CCCCC1` the T/C [7] was 100 % of control, the T/C [8] was 86 % of control and the T/C [9] was 110 % of control. For the same molecule, the T/C [10] was 100 % of control, the T/C [11] was 90 % of control and the T/C [12] was 105 % of control. The T/C [13] was 104 % of control, the T/C [14] was 100 % of control and the T/C [15] was 110 % of control.

`CN1C(=O)NNC(=O)c2ccccc21` was tested, and the T/C [4] was 106 % of control, the T/C [16] was 100 % of control and the T/C [17] was 97 % of control.

For `Cc1ccc(S(=O)(=O)OC2CCC(C(C)(C)C)CC2Cl)cc1` (stereo not drawn), the T/C [8] was 105 % of control, the T/C [9] was 100 % of control and the T/C [11] was 110 % of control. For the same molecule, the T/C [12] was 86 % of control and the T/C [14] was 95 % of control.

With `Cc1ccc(NC(=O)Oc2ccc(Br)cc2Br)c([N+](=O)[O-])c1` the T/C [16] was 122 % of control.

In the case of `O=C1c2ccccc2C(=O)N1OC1CCCCO1` (stereo not drawn), the T/C [16] is reported as 91 % of control, the T/C [3] is reported as 100 % of control and the T/C [17] is reported as 87 % of control. The T/C [5] was 108 % of control, the T/C [18] was 100 % of control and the T/C [6] was 104 % of control.

In the case of `O=C(O)CCCCCCCC(=O)c1ccccc1`, the T/C (dose: 50.0 mg/kg/injection, schedule: Q04DX003 (ip), vehicle: saline sonified) is reported as 100 % of control, the T/C (dose: 100.0 mg/kg/injection, schedule: Q04DX003 (ip), vehicle: saline sonified) is reported as 104 % of control and the T/C (dose: 200.0 mg/kg/injection, schedule: Q04DX003 (ip), vehicle: saline sonified) is reported as 95 % of control.

With `Cc1ccccc1NC(=O)Nc1ccccc1C` the T/C (dose: 0.37 mg/kg/injection, schedule: Q01DX009 (ip), vehicle: Klucel (hydroxypropylcellulose) (HPC)) was 88 % of control, the T/C (dose: 0.75 mg/kg/injection, schedule: Q01DX009 (ip), vehicle: Klucel (hydroxypropylcellulose) (HPC)) was 100 % of control and the T/C (dose: 1.5 mg/kg/injection, schedule: Q01DX009 (ip), vehicle: Klucel (hydroxypropylcellulose) (HPC)) was 107 % of control. For the same molecule, the T/C [9] was 104 % of control, the T/C [12] was 95 % of control and the T/C [15] was 109 % of control.

`CC(C)(C)OC(=O)NC(CC(Cc1ccccc1)C(=O)O)C(=O)NC(CC(Cc1ccccc1)C(=O)O)C(=O)NC(CC(Cc1ccccc1)C(=O)O)C(=O)NCC(=O)Oc1ccc([N+](=O)[O-])cc1` (stereo not drawn) was tested, and the T/C (dose: 50.0 mg/kg/injection, schedule: Q01DX005 (ip), vehicle: saline with Tween-80) was 86 % of control and the T/C (dose: 200.0 mg/kg/injection, schedule: Q01DX005 (ip), vehicle: saline with Tween-80) was 104 % of control.

`COc1ccc(NC(=O)c2ccccc2Cl)cc1` was tested, and the T/C [8] was 100 % of control, the T/C [9] was 104 % of control and the T/C [11] was 95 % of control. For the same molecule, the T/C [12] was 91 % of control, the T/C [14] was 104 % of control and the T/C [15] was 112 % of control.

With `CC(O)CC1CCCCN1O` (stereo not drawn) the T/C [19] was 110 % of control, the T/C [20] was 101 % of control and the T/C (dose: 400.0 mg/kg/injection, schedule: Q04DX002 (ip), vehicle: saline with Tween-80) was 100 % of control.

In the case of `CCOC(=O)c1ccc(C=O)[nH]1`, the T/C [4] is reported as 101 % of control, the T/C [16] is reported as 99 % of control and the T/C [17] is reported as 99 % of control.

In the case of `C=CCN1C=CC(=C/C=C(\C#N)C(=O)OCC)C=C1`, the T/C [4] is reported as 99 % of control, the T/C [16] is reported as 91 % of control and the T/C [17] is reported as 99 % of control.

In the case of `CC(=O)N(O)CCCCCNC(=O)CCC(=O)N(O)CCCCCNC(=O)CCC(=O)N(O)CCCCCN`, the T/C [4] is reported as 101 % of control and the T/C [16] is reported as 102 % of control.

`CSC1C(=O)Nc2c1cccc2[N+](=O)[O-]` (stereo not drawn) was tested, and the T/C (dose: 50.0 mg/kg/injection, schedule: Q04DX002 (ip), vehicle: saline with Tween-80) was 96 % of control, the T/C [19] was 92 % of control and the T/C [20] was 99 % of control.

With `O=[N+]([O-])c1cc(-c2nc3ccccc3[nH]2)cc([N+](=O)[O-])c1` the T/C [4] was 110 % of control and the T/C [16] was 91 % of control.

For `CC1=NC2=NC(CCCC(=O)Nc3ccc(Cl)cc3)=NC3=CC=CC(=N1)N32`, the T/C [21] was 104 % of control, the T/C [4] was 95 % of control and the T/C [16] was 99 % of control.

`O=C(CCC(O)c1ccccc1)NCc1ccccc1` (stereo not drawn) was tested, and the T/C (dose: 100.0 mg/kg/injection, schedule: Q01DX001 (ip), vehicle: saline with Tween-80) was 104 % of control, the T/C (dose: 200.0 mg/kg/injection, schedule: Q01DX001 (ip), vehicle: saline with Tween-80) was 100 % of control and the T/C (dose: 400.0 mg/kg/injection, schedule: Q01DX001 (ip), vehicle: saline with Tween-80) was 90 % of control.

For `NC(N)=NCCCCCCC(=O)Nc1ccc(S(N)(=O)=O)cc1`, the T/C [21] was 112 % of control, the T/C [4] was 106 % of control and the T/C [16] was 97 % of control.

`CN1C(=O)C(=Cc2ccc(N(C)C)cc2)C(=O)N(C)C1=O` was tested, and the T/C [4] was 103 % of control, the T/C [16] was 99 % of control and the T/C [17] was 98 % of control.

`COc1ccc(C2NC(=S)NC3=C2CCCC3)cc1` (stereo not drawn) was tested, and the T/C [4] was 96 % of control, the T/C [16] was 107 % of control and the T/C [17] was 98 % of control.

For `OCCN1CCN(CCCN2c3ccccc3Oc3ccc(C(F)(F)F)cc32)CC1`, the T/C (dose: 15.0 mg/kg/injection, schedule: Q04DX003 (ip), vehicle: saline) was 105 % of control, the T/C (dose: 25.0 mg/kg/injection, schedule: Q01DX009 (ip), vehicle: saline) was 104 % of control and the T/C (dose: 30.0 mg/kg/injection, schedule: Q04DX003 (ip), vehicle: saline) was 115 % of control. For the same molecule, the T/C (dose: 50.0 mg/kg/injection, schedule: Q01DX009 (ip), vehicle: Klucel (hydroxypropylcellulose) (HPC)) was 150 % of control and the T/C (dose: 120.0 mg/kg/injection, schedule: Q04DX003 (ip), vehicle: saline) was 105 % of control.

In the case of `CC(C)C(=O)OCC1OC(n2cnc3c(=S)nc(N)[nH]c32)C(OC(=O)C(C)C)C1OC(=O)C(C)C` (stereo not drawn), the T/C (dose: 25.0 mg/kg/injection, schedule: Q01DX009 (ip), vehicle: Klucel (hydroxypropylcellulose) (HPC)) is reported as 92 % of control.

`CC(=O)NCc1ccc([N+](=O)[O-])cc1` was tested, and the T/C [21] was 103 % of control, the T/C [1] was 111 % of control and the T/C [4] was 103 % of control. For the same molecule, the T/C [2] was 115 % of control, the T/C [16] was 100 % of control and the T/C [3] was 111 % of control. The T/C [17] was 119 % of control, the T/C [5] was 109 % of control and the T/C [18] was 95 % of control. The T/C [6] was 118 % of control.

With `COc1ccc(NC(=O)CCC(=O)O)cc1` the T/C [3] was 92 % of control, the T/C [5] was 88 % of control and the T/C [6] was 88 % of control.

`CC1(C)OC(=O)C(=Cc2c(Cl)cccc2Cl)C(=O)O1` was tested, and the T/C [7] was 109 % of control, the T/C [8] was 87 % of control and the T/C [10] was 104 % of control. For the same molecule, the T/C [11] was 104 % of control, the T/C [13] was 109 % of control and the T/C [14] was 100 % of control.

`C[Si](C)(C)C1CO1` (stereo not drawn) was tested, and the T/C [4] was 106 % of control, the T/C [16] was 106 % of control and the T/C [17] was 102 % of control.

In the case of `N#CCCN(CCC#N)/N=N\c1nc[nH]c1C(N)=O`, the T/C [4] is reported as 101 % of control, the T/C [16] is reported as 105 % of control and the T/C [17] is reported as 113 % of control. The T/C [18] was 113 % of control.

In the case of `CC(C)(C)c1cc2c3c(c1)C(C)(C)OS3(C)OC2(C)C`, the T/C (dose: 6.25 mg/kg/injection, schedule: Q04DX003 (ip), vehicle: saline with Tween-80) is reported as 102 % of control, the T/C (dose: 12.5 mg/kg/injection, schedule: Q04DX003 (ip), vehicle: saline with Tween-80) is reported as 100 % of control and the T/C [1] is reported as 92 % of control.

`O=C1c2c(Cl)cccc2C(c2ccccc2)c2cccc(Cl)c21` was tested, and the T/C [4] was 95 % of control, the T/C [16] was 104 % of control and the T/C [17] was 97 % of control.
